Assays:
[1] = molecular target: human NCX1 (Homo sapiens, UniProt P32418); conditions: 5 mM nickel
Procedure: (§1) The cultured cells were detached by application of iced PBS (phosphate buffered saline) or Trypsin at least 18 hours prior to electrophysiological experiments and replated on cover slips.
(§2) Two bath solutions and pipette solutions were prepared for patch clamp experiments with the following composition:
(§3) 135 mM NMG, 5 mM MgCl2, 2 mM CaCl2, 4 mM EGTA, 30 mM HEPES, pH 7.4
(§4) 139 mM NMG, 5 mM MgCl2, 2 mM CaCl2, 30 mM HEPES, pH 7.4
(§5) 100 mM NaCl, 5 mM KCl, 2 mM CaCl2, 2 mM MgCl2, 2.1 mM EGTA, 35 mM TEA-Cl, 4 mM Mg-ATP, 0.5 mM Na-GTP,
(§6) 5.63 mM Phosphocreatine, 30 mM HEPES, […] Creatine Phosphokinase (70 ml pipette solution+3500 U filtered Creatine Phosphokinase, ad 100 ml pipette solution), pH 7.4 (NaOH)
(§7) To inhibit NCX currents, 5 mM nickel chloride was dissolved in bath solution “high calcium”. NCX activity was measured using the patch clamp technique in the whole cell configuration. The cells were clamped at room temperature (20-25° C.) to a holding potential of 0 mV. NCX currents were evoked by application of 2 mM external calcium (bathsolution “high calcium”) for 4 seconds (=control). Calcium application was repeated every 20 s. After 5 stimulations, inhibition by nickel was tested using the same protocol but activation with calcium in the presence of 5 mM nickel (5 replicates). Finally, 5 calcium pulses were applied again for washout studies. To characterize NCX currents, peak currents, transported charge and the time constant of signal decay were investigated and analyzed according to the report. All data are presented as mean±SEM.

[2] = molecular target: human NCX2 (Homo sapiens, UniProt Q9UPR5)
human NCX2, sequence (Q9UPR5 21-921): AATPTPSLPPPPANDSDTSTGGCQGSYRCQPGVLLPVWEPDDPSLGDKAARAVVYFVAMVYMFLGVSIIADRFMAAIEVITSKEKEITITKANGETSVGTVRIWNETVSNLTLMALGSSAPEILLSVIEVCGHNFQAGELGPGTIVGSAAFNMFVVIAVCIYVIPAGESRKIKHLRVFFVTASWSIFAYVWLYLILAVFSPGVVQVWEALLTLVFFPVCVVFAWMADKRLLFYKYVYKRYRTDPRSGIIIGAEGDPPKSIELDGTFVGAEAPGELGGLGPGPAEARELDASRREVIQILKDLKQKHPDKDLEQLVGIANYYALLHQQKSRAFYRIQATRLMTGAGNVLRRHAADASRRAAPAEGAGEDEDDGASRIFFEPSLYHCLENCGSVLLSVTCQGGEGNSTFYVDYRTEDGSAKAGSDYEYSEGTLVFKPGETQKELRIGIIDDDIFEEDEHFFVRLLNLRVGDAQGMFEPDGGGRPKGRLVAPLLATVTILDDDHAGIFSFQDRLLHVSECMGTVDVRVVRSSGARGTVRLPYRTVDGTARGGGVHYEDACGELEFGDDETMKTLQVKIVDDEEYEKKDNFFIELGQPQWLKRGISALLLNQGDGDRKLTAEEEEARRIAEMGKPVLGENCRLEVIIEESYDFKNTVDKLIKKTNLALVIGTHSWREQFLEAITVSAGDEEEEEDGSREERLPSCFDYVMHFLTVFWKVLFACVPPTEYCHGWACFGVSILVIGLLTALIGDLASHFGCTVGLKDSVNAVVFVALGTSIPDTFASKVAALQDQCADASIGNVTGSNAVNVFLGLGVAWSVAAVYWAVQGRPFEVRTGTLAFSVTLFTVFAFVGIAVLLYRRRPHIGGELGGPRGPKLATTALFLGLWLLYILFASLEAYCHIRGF
Procedure: as §1, §2, §3, §4, §5, §6, §7

[3] = molecular target: human NCX3 (Homo sapiens, UniProt P57103)
human NCX3, sequence (P57103 31-924 isoform P57103-6 limits assumed): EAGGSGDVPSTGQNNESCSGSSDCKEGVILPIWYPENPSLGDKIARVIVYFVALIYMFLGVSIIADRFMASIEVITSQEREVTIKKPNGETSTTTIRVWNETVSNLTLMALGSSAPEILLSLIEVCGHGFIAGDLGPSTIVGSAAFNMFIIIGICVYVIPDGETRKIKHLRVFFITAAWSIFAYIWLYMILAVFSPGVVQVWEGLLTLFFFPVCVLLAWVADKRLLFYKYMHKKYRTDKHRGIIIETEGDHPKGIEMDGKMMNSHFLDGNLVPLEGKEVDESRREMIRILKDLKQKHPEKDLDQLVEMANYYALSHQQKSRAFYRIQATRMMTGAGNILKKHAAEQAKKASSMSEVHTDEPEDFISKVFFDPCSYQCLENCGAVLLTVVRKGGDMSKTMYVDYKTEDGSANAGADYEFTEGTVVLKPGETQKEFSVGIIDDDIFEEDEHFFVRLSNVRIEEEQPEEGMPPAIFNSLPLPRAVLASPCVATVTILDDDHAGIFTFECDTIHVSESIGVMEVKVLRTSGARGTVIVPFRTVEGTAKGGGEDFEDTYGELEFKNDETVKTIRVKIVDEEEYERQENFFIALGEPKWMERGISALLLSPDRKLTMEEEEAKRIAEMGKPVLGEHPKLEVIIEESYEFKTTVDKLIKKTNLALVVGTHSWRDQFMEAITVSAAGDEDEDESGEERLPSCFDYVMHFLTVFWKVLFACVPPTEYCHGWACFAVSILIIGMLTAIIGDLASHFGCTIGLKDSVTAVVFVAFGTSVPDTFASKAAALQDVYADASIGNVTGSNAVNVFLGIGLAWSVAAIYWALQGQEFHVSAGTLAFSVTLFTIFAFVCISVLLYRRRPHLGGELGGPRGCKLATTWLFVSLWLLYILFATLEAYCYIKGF
Procedure: as §1, §2, §3, §4, §5, §6, §7

[4] = after 5 mM nickel, 5 calcium pulses for washout

## [Cl][Ni][Cl] [nickel, nickel chloride]
[1]
  Block of NCX1 outward currents (in words): completely and reversible blocked
[1]; reverse mode, 2 mM external Ca2+, holding potential 0 mV
  Block of NCX1 outward currents: 91.3±3.3%
[2]; 5 mM nickel
  Block of NCX2 outward currents (in words): completely and reversible blocked
[2]; [4]
  Washout after nickel block, NCX2 currents: 100.2±1.9%
[3]; 5 mM nickel
  Block of NCX3 outward currents (in words): completely and reversible blocked
[3]; [4]
  Washout after nickel block, NCX3 currents: 111.5±2.4%

From US20110124033A1, “FLUORESCENCE BASED ASSAY TO DETECT SODIUM/CALCIUM EXCHANGER (NCX ) "REVERSE MODE" MODULATING COMPOUNDS” (SANOFI-AVENTIS, priority 2008, published 2011)
